# Reference: publication PMC10610105, “Designing and Exploration of the Biological Potentials of Novel Centrosymmetric Heteroleptic Copper(II) Carboxylates” (Pharmaceuticals, 2023)
# Key:
# α-amylase = α-amylase enzyme inhibition assay; format: biochemical, Saccharomyces cerevisiae; conditions: for IC50: α-amylase inhibition
# Procedure: A reported protocol with slight modification was used to perform the α-amylase enzyme inhibition assay. A stock solution (1 unit/mL) was prepared by dissolving α-amylase solution from Saccharomyces cerevisiae in 50 mM potassium phosphate buffer (pH 6.8), and for the substrate, in the same buffer 20 mM p-nitrophenyl-α-D-glucopyranoside (PNG) was prepared. The assay was conducted in triplicate using 96-well plates. […] For the experiments, each well contained phosphate buffer 65 μL (50 mM, pH 6.8), PNG 25 μL, α-amylase enzyme 5 μL (0.05 U/mL), and test sample 5 μL. The plates were allowed to incubate at 37 °C for 30 min, followed by the addition of 100 μL sodium bicarbonate (0.5 mM) as a stopping agent.
# By using a microplate reader (BioTek Elx-800, Winooski, VT, USA), absorbance was recorded at 405 nm. The percent inhibition was calculated using the formula: %Inhibition=Acontrol−Asample/Acontrol × 100 where Acontrol is the control absorbance and Asample is the sample absorbance.
# [1] = Hydroxyl radical scavenging assay; conditions: for IC50: hydroxyl radical scavenging, read-out: IC50 (µM) ± SEM; for % Inhibition: hydroxyl radical
# Procedure: (§1) DPPH and hydroxyl (•OH) radical scavenging assays based on spectroscopic measurements are simple in vitro methods used to evaluate the antioxidant potential of test compounds. The promising results of these assays could be exploited as preliminary tests in search of drugs with potential anticancer, anti-aging, and anti-inflammatory activities. Within this context, the abilities of the free ligand acid (HL) and synthesized complexes (1 and 2) to scavenge DPPH and hydroxyl radicals were determined in order to evaluate their potential antioxidant ability compared to that of vitamin C as a reference compound.
# The hydroxyl radical scavenging activities of the free ligand acid and synthesized complexes (1 and 2) were evaluated according to a reported method. Different concentrations (15, 30, 60, 120, and 240 μM) of the free ligand acid and complexes were mixed with 0.4 M phosphate buffer (pH 6.6) (1000 μL), 0.1% hydrogen peroxide (100 μL), 3.7 mM o-phenanthroline (200 μL), and 7.5 mM ferrous sulfate (100 μL). The mixtures were diluted with distilled water to 3000 μL before incubating for 30 min at room temperature. The absorbance of mixtures was recorded at 510 nm using ascorbic acid as a standard.
# The %scavenging was calculated using the following formula: %scavenging=As−Ac/Ab−As×100 where As, Ac, and Ab are the observed absorbance values of the sample, control, and blank, respectively.
# [2] = system: SS-DNA (salmon sperm DNA); assay: DNA binding study by viscometry; conditions: SS-DNA 87.72 μM, compound 5–30 μM, Ostwald viscometer
# Procedure: The viscosity of the SS-DNA solution (87.72 μM) in the absence and the presence of complexes 1 and 2 (5–30 μM) was measured using an Ostwald viscometer. For accuracy, the readings were made in triplicate for each sample, and then an average flow rate was calculated. Data are presented as (η/ηo)^1/3 vs. binding ratio ® of [complex]/[DNA], where η is the relative viscosity of the complex-DNA adduct, and ηο is the relative viscosity of DNA alone. The relative viscosity values for SS-DNA in the presence (η) and the absence (ηο) of the complexes were calculated using the relation η = (t − to)/to, where t is the observed flow time in seconds.
# [3] = DPPH free radical scavenging assay; conditions: for IC50: DPPH radical scavenging, read-out: IC50 (µM) ± SEM; for % Inhibition: DPPH
# Procedure: as §1
# The in vitro DPPH free radical scavenging activities of the free ligand acid and complexes 1 and 2 were assessed, as per a reported procedure with slight modification in the protocol.
# Different concentrations (15, 30, 60, 120, and 240 μM) of the free ligand acid and complexes were mixed with 1000 μL of 255 μM DPPH solution made in ethanol. The mixture solutions were shaken and incubated in the dark for 30 min at room temperature. The absorbance of the solutions was measured at 518 nm using a UV-VIS spectrophotometer. Ascorbic acid of fixed concentration was used as a positive control. The readings were made in triplicate. Percentage inhibition of the test compounds was evaluated by using the formula: %scavenging=Ac−As/Ac×100 where Ac and As are the observed absorbance values of the control and the sample, respectively.
# [4] = system: SS-DNA (salmon sperm DNA); assay: DNA binding study by UV-visible absorption spectroscopy; conditions: complex-DNA interaction, calculated
# Procedure: UV-visible absorption measurements can be used to monitor changes occurring in λmax values (red or blue shifts) and absorption intensity (hyper- or hypochromism) of either a test compound or DNA as a result of any possible interaction. These changes can be used to find some details about the mode of interaction of metal complexes with DNA [25]. In the present study, absorption titrations were made with a fixed concentration (200 μM) of complexes against varying concentrations (5-30 μM) of SS-DNA. The extent of complex-DNA binding was assessed by calculating intrinsic binding constant (Kb) values using the well-known Benesi-Hildebrand equation [26]. Ao/A-A0=ε[…]+1/Kb[DNA] where Kb is the binding constant, A is the absorbance of complex-DNA adduct, Ao is the absorbance of pure complex solution, [DNA] is the concentration of SS-DNA in mol/L, εH-G is the molar absorption co-efficient of each complex-DNA adduct, and εG is the molar absorption co-efficient of pure complex. […] Ao/A-Ao along the ordinate, as shown in Figure 3B and Figure 4B for complexes 1 and 2, respectively. […] The SS-DNA solution (ε = 6600 M^-1 cm^-1 at 260 nm) concentration was determined via absorption spectroscopy. The complex solutions (200 μM) were made in aqueous DMSO (1:4). […] To eliminate the absorbance of DNA, equivalent SS-DNA solutions were added to the complex and reference solutions. […]
SMILES,% α-Amylase Activity (α-amylase; concentration 31.25 µg/mL) [%],% α-Amylase Activity (α-amylase; concentration 62.5 µg/mL) [%],% α-Amylase Activity (α-amylase; concentration 125 µg/mL) [%],% α-Amylase Activity (α-amylase; concentration 250 µg/mL) [%],% α-Amylase Activity (α-amylase; concentration 500 µg/mL) [%],IC50 (α-amylase) [µg/mL],IC50 [1] [µM],% Inhibition ([1]; dose conc. 15 µM) [%],% Inhibition ([1]; dose conc. 30 µM) [%],% Inhibition ([1]; dose conc. 60 µM) [%],% Inhibition ([1]; dose conc. 120 µM) [%],% Inhibition ([1]; dose conc. 240 µM) [%],effect on the relative viscosity of the DNA [2],IC50 [3] [µM],% Inhibition ([3]; dose conc. 15 µM) [%],% Inhibition ([3]; dose conc. 30 µM) [%],% Inhibition ([3]; dose conc. 60 µM) [%],% Inhibition ([3]; dose conc. 120 µM) [%],% Inhibition ([3]; dose conc. 240 µM) [%],ΔG [4] [kcal/mol]
"C[C@H]1O[C@H](O[C@H]2[C@H](O)[C@@H](O)[C@@H](O[C@H]3[C@H](O)[C@@H](O)C(O)O[C@@H]3CO)O[C@@H]2CO)[C@H](O)[C@@H](O)[C@@H]1N[C@H]1C=C(CO)[C@@H](O)[C@H](O)[C@H]1O (stereo partly shown) [Acrabose, acarbose, reference compound]",14.34,26.42,46.39,68.61,84.33,,,,,,,,,,,,,,,
"O=C(O)Cc1ccc(F)c(F)c1 [HL, 3,4-difluorophenylacetic acid]",1.72,1.9,9.22,19.67,32.95,728.17,1771 ± 1.17,0.009,1.050,1.070,2.770,6.660,no effect,1010 ± 1.99,1.09,3.05,5.07,7.77,12.55,
"O=C1O[C@H]([C@@H](O)CO)C(O)=C1O [Vit. C, ascorbic acid, reference compound]",,,,,,,162 ± 12.1,6.78,10.49,16.87,43.87,70.55,,127 ± 14,7.09,15.09,29.98,58.09,82.35,
"Cc1ccccn1.Cc1ccccn1.O=C([O-])Cc1ccc(F)c(F)c1.O=C([O-])Cc1ccc(F)c(F)c1.O=C([O-])Cc1ccc(F)c(F)c1.O=C([O-])Cc1ccc(F)c(F)c1.[Cu+2].[Cu+2] [complex 1, [Cu2(3,4-F2C6H3CH2COO)4(2-CH3py)2]]",6.03,7.24,22.24,41.12,51.22,437.73,283 ± 7.01,0.05,10.00,15.04,28.32,39.99,pronounced increase,214 ± 7.77,8.07,15.77,25.39,39.00,51.12,-6.979
"Cc1cccnc1.Cc1cccnc1.O=C([O-])Cc1ccc(F)c(F)c1.O=C([O-])Cc1ccc(F)c(F)c1.O=C([O-])Cc1ccc(F)c(F)c1.O=C([O-])Cc1ccc(F)c(F)c1.[Cu+2].[Cu+2] [complex 2, [Cu2(3,4-F2C6H3CH2COO)4(3-CH3py)2]]",5.33,8.33,20.46,38.00,50.30,455.32,308 ± 6.89,0.04,1.30,14.50,25.00,35.99,pronounced increase,365 ± 5.31,4.045,5.150,14.975,21.500,32.550,-7.808
